Here are results for 1 compound from PMC11581214, “Compound 4f, a novel brain-penetrant reversible monoacylglycerol inhibitor, ameliorates neuroinflammation, neuronal cell loss, and cognitive impairment in mice with kainic acid-induced neurodegeneration” (PLOS ONE, 2024).

Each structure is given as a SMILES string.

Experiment [1] addresses T1, monoamine oxidase-B (Homo sapiens, UniProt P27338).
T1 construct: gene MAOB
T1 sequence (P27338 2-520): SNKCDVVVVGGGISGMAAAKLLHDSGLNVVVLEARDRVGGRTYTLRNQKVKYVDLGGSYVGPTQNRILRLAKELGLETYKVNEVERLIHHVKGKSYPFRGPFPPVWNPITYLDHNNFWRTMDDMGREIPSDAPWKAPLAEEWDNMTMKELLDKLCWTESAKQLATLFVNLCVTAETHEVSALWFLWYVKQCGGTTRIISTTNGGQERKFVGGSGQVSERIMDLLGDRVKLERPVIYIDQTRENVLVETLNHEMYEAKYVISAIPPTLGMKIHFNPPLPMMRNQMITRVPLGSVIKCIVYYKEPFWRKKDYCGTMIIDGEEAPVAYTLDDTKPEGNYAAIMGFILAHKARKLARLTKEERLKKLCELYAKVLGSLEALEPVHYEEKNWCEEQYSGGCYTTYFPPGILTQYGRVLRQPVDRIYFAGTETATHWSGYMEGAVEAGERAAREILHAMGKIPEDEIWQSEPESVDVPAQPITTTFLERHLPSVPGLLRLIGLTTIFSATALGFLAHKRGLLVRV
Description: off-target panel enzyme assay (Eurofins), single concentration […]. In kind it is biochemical.

Experiment [2] addresses T2, serotonin (5-hydroxytryptamine) 2B (Homo sapiens, UniProt P41595).
T2 construct: gene HTR2B
Description: off-target panel of radioligand binding and functional assays (Eurofins), single concentration […].

The target in experiment [3] is T3, monoacylglycerol lipase (MAGL) (Mus musculus, UniProt O35678).
T3 construct: gene Mgll
T3 sequence (O35678 1-303): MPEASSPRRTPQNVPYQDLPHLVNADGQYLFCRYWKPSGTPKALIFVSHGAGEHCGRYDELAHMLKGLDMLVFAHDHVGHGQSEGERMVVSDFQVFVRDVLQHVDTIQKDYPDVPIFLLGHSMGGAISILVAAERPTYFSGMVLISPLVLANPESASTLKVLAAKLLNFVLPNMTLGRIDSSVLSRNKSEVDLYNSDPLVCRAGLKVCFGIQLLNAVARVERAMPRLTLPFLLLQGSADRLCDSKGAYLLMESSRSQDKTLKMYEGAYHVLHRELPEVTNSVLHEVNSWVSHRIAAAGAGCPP
Nature of the experiment: in vivo brain target occupancy by displacement of MAGL tracer T-211 (LC-MS/MS); brain 2-AG increase and AA decrease. In kind it is cell-based.

T2 sequence (P41595 whole entry): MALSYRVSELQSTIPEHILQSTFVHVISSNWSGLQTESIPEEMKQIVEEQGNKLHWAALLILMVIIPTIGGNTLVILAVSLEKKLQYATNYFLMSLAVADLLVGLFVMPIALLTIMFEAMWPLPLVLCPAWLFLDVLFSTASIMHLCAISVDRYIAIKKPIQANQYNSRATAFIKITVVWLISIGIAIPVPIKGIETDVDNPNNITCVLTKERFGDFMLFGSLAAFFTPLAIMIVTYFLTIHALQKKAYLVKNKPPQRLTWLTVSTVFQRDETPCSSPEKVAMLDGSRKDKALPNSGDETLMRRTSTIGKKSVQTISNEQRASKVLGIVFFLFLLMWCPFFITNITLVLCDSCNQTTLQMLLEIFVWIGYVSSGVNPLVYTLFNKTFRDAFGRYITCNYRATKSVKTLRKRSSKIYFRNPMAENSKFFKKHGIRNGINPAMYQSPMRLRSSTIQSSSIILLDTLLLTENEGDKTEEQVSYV

For the compound `Cc1ccc(COC2CN(C(=O)[C@H]3C[C@]4(COC(=O)N4)C3)C2)cc1Cl` [4f], the results for the inhibition at 10 µM in experiment [1] and in experiment [2] were less than 50% and 81%, respectively. The compound further gave a receptor occupancy at 1 mg/kg in experiment [3] of more than 99%.

A word on the inhibition: it is the percentage by which the read-out fell short of the control. A higher inhibition goes with strong suppression.
